Data published in publication PMC11022729 (Advanced Science, 2024).

Experiments:
mice [1] = assay: Hargreaves test; type: in vivo; conditions: 10 mg kg−1 i.p., hindpaws, vs vehicle
Procedure: An infrared heat source (intensity set to 25) was applied to the plantar surface of the hind paw, and the time until the animal elicited a withdrawal response was determined. Each hind paw was measured 4–5 times with a minimum interval of 20 s between measurements, and the mean value was calculated. Measurements that reached the cutoff time (20 s) were excluded.

human Slack = target: T1, human Slack (Homo sapiens, UniProt Q5JUK3); assay: Whole-cell patch-clamp recordings in HEK-Slack cells; type: cell-based; conditions: 25 µM
T1 construct: host or cells: HEK293
T1 sequence (Q5JUK3 1-1230): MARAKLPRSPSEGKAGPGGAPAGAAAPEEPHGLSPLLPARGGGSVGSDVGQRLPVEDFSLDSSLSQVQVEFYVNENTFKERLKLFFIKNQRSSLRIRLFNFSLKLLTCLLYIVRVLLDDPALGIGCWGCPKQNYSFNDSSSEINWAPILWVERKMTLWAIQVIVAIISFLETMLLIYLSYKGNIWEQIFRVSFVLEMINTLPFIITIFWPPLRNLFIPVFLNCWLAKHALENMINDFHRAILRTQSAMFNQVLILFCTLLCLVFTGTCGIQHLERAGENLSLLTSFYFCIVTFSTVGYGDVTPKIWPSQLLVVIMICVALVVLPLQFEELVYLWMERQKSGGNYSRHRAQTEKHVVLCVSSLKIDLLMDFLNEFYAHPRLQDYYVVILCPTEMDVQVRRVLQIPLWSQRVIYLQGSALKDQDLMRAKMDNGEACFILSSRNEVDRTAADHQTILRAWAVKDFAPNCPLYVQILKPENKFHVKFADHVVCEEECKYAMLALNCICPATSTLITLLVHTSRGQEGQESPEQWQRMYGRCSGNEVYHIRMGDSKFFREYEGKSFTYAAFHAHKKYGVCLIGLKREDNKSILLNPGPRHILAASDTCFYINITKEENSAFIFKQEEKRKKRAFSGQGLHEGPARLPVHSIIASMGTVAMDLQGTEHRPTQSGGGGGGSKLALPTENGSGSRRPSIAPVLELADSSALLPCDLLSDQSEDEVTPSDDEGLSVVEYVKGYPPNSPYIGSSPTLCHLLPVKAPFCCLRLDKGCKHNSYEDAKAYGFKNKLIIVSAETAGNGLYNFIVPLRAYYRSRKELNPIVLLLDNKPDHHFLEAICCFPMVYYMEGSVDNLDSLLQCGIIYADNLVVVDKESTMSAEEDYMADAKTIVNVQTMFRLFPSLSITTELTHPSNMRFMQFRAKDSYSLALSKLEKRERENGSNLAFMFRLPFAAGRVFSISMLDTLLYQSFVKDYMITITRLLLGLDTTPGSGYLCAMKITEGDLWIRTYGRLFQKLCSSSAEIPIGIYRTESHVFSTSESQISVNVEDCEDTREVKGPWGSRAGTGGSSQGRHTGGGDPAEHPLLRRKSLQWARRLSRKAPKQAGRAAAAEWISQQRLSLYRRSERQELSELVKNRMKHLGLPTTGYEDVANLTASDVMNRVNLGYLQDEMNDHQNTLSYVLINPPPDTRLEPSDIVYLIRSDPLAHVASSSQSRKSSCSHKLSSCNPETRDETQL
Procedure: Next, we verified Slack activation by the new compounds using whole‐cell patch‐clamp recordings in HEK‐Slack cells. […] At a holding potential of −70 mV, a series of 500 ms‐long test pulses ranging from −120 to +120 mV in intervals of 20 mV were applied.^[ [16] ^]
HEK‐Slack cells were plated onto poly‐D‐lysine‐coated (100 µg mL^−1, Sigma–Aldrich) coverslips 1 day before experiments and cultured in DMEM containing 10% FBS and 1% penicillin/streptomycin in 5% CO2 at 37 °C. Whole‐cell voltage‐clamp recordings were acquired using an EPC 9 amplifier combined with Patchmaster software (HEKA Electronics, Lambrecht/Pfalz, Germany). Currents were sampled at 20 kHz and filtered at 5 kHz. Data analysis was performed using the Fitmaster software (HEKA Electronics). Membrane potential was held at −70 mV and outward K^+ current (IK) was evoked by depolarizing steps (500 ms duration) ranging from −120 to +120 mV in increments of 20 mV. The pipette solution contained 140 mM KCl, 2 mM MgCl2, 5 mM EGTA, and 10 mM HEPES and was adjusted to pH 7.4 with KOH. The extracellular solution contained 140 mM NaCl, 5 mM KCl, 2 mM CaCl2, 2 mM MgCl2, and 10 mM HEPES and was adjusted to pH 7.4 with NaOH. […] The fold‐increase values in the patch‐clamp experiments were determined by calculating […]. […]

[2] = test system: voltage-dependent Na+ channels in IB4-binding sensory neurons; assay: Tetrodotoxin-resistant Na+ currents in DRG neurons (patch-clamp); type: cell-based, mouse; conditions: 50 µM
histamine H1 receptor = histamine H1 receptor (Homo sapiens, UniProt P35367); assay: SafetyScreen44 panel; type: binding; design: purchased Eurofins Cerep P270; conditions: 10 µM
Procedure: (§1) Measurements were performed in duplicate.
(§2) channel, which were obtainedfrom ratspecimens).
(§3) in brackets) specific for each target.

mice [3] = assay: Observation of mouse behavior / signs of toxicity after systemic administration; type: in vivo
Description: To prepare for in vivo studies, we investigated the pharmacokinetic properties of compound 6. […] For comparison, we determined the plasma and brain loxapine levels. […] Collectively, the pharmacological and pharmacokinetic profiles of compound 6 make it an excellent molecule for in vivo pharmacodynamic studies.
With regard to the safety profile, it should be considered that Slack is expressed in various neuronal populations in the CNS, and gain‐of‐function mutations of KCNT1 have been associated with epileptic encephalopathies in humans.^[ [46] ^] Limited information exists concerning the incidence of seizures during loxapine treatment. […] However, the epileptogenic potential of brain‐penetrant Slack activators such as compound 6 should be carefully assessed in the future.

muscarinic M3 receptor = target: T2, muscarinic M3 receptor (Homo sapiens, UniProt P20309); assay: biochemical; conditions: read-out: binding inhibition
T2 construct: purchased Eurofins Cerep P270
Procedure: as §1, §2, §3

muscarinic M1 receptor = target: T3, muscarinic M1 receptor (Homo sapiens, UniProt P11229); assay: biochemical; conditions: read-out: binding inhibition
T3 construct: purchased Eurofins Cerep P270
Procedure: as §1, §2, §3

T2 sequence (P20309 whole entry): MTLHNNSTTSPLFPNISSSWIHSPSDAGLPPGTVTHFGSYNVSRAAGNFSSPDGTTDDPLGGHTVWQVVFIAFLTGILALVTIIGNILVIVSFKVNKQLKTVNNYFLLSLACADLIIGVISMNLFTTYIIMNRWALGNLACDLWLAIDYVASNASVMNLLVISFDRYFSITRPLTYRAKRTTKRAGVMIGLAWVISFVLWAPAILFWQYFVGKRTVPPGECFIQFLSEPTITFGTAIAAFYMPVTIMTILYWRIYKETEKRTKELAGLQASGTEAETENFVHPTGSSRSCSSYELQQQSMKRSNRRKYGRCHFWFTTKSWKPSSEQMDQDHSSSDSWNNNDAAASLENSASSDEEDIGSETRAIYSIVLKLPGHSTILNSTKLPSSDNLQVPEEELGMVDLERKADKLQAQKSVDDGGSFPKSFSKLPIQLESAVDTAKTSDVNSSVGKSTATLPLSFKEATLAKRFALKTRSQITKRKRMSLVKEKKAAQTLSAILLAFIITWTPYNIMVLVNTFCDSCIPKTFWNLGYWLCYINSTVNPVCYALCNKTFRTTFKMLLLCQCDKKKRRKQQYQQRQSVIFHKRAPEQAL
T3 sequence (P11229 whole entry): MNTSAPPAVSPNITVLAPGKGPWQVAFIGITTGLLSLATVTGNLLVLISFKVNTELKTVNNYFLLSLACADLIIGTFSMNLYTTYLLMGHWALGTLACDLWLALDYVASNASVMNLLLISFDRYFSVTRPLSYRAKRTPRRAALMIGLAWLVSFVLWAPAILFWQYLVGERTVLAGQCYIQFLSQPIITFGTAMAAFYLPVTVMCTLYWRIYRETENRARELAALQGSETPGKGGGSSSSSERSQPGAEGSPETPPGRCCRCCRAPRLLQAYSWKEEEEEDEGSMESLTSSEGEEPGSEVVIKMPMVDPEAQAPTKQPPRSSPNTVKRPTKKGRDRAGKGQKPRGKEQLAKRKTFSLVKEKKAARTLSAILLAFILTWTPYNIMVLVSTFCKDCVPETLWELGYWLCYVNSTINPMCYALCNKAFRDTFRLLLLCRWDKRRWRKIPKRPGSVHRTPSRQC
histamine H1 receptor, sequence (P35367 whole entry): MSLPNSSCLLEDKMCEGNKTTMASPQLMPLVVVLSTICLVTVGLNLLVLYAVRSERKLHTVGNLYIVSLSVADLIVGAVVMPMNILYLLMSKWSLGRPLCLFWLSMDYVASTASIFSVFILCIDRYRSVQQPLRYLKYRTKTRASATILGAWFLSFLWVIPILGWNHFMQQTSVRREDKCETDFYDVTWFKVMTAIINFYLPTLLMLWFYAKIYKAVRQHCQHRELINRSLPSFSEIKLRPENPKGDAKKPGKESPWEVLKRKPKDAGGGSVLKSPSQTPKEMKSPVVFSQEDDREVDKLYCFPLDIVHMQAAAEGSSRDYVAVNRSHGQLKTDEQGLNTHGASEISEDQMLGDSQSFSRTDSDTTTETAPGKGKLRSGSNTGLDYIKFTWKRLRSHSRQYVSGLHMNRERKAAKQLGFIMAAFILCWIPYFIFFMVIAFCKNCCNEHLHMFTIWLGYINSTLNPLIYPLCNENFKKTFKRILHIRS

O=C(O)COCCN1CCN(C2=Nc3ccccc3Oc3ccc(Cl)cc32)CC1 [Compound 6]
thermal sensitivity (Hargreaves test) (mice [1]): Neither mechanical nor thermal sensitivity was altered
increase in current densities (human Slack; 10 mM pipette Na+): more pronounced
current densities compared to baseline (human Slack; Na+-free pipette solution): increased the current densities compared to baseline
tetrodotoxin-resistant Na+ currents [2]: did not affect
binding inhibition (histamine H1 receptor): substantial binding
impairment of mouse behavior (mice [3]; 10 mg kg−1 i.p.): No obvious impairment of mouse behavior
overt signs of seizures (mice [3]; systemic administration, doses up to 30 mg kg−1): did not observe any overt signs of seizures

CN1CCN(C2=Nc3ccccc3Oc3ccc(Cl)cc32)CC1 [Loxapine, reference compound]
inhibition at 10 µM (muscarinic M3 receptor): > 50%
inhibition at 10 µM (muscarinic M1 receptor): > 50%
